Measured values reported in PubChem BioAssay AID463206 (Broad Institute, 2010).
Calls of active or inactive are those of the source.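 Rule for the calls: active = caspase luminescence falls with dose and the half-maximal concentration AC50 from the fitted curve is at or below a set limit; inconclusive = flat fit at 30 to 70% signal loss, or invalid fit; inactive = AC50 above the limit, or signal rises instead.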

Each compound was assayed on INS-1E cytokine-induced caspase-3/7, Caspase-Glo luminescence, 48 h (assay: suppression of cytokine-driven beta-cell apoptosis – INS-1E rat cells, luminescence, orthogonal assay for beta-cell apoptosis protection project, dose response (AID 463206)).
In the case of `C#CC[N+](C)(C)CCCCCCCCCCCC`, the AC50 is reported as > 26 µM (inactive).
For `Cc1ccccc1Cn1ccc(=NCc2ccccc2)cc1`, the AC50 was > 26 µM (inactive).
For `CC1CCN(Cc2c(C(=O)N/N=C/c3cc(Br)ccc3O)nnn2-c2nonc2N)CC1`, the AC50 was > 26 µM (inactive).
In the case of `COC(=O)c1ccc2c(=O)n(-c3ccccc3)c(SCN3C(=O)c4ccccc4C3=O)nc2c1`, the AC50 is reported as > 26 µM (inactive).
`Cc1sc2ncnc(NCc3cccs3)c2c1C` was tested, and the AC50 was > 26 µM (inactive).
In the case of `O=C(Oc1cccc2cccnc12)c1cccc(N2C(=O)C3C4CCC(C4)C3C2=O)c1` (stereo not drawn), the AC50 is reported as > 26 µM (inactive).
For `O=C(Oc1c(CN2CCOCC2)cc(Cl)c2cccnc12)c1ccccc1Br`, the AC50 was > 26 µM (inactive).
With `Cc1ccc(C)c(N=Nc2ccc(O)c3ncccc23)c1` the AC50 was > 26 µM (inactive).
In the case of `CCCC(=O)NC(c1ccc(Cl)cc1Cl)c1ccc2cccnc2c1O` (stereo not drawn), the AC50 is reported as > 12 µM (inactive).
With `O=C(NCc1cccnc1)c1cc(-c2ccco2)on1` the AC50 was > 26 µM (inactive).
`CC(=O)CSc1ccc(-c2nc3ccccc3[nH]2)cn1` was tested, and the AC50 was > 26 µM (inactive).
For `COc1ccc(/C=C/c2cc(-c3ccc(C)cc3)o[n+]2C)cc1`, the AC50 was > 26 µM (inactive).
For `CCCNC1=C(N(C(C)=O)c2cccc(F)c2)C(=O)c2ccccc2C1=O`, the AC50 was > 26 µM (inactive).
In the case of `Nc1nonc1-n1nnc(C(=O)N/N=C/c2cc(Br)ccc2O)c1CSC1=NCCS1`, the AC50 is reported as > 26 µM (inactive).
In the case of `O=c1c(Cl)c2oc3ccccc3nc-2c2ccccc12`, the AC50 is reported as > 26 µM (inactive).
In the case of `N=c1ccn(CC(=O)c2ccc(-c3ccccc3)cc2)cc1`, the AC50 is reported as > 26 µM (inactive).
For `CC(C)C[C@H]1CN=C(Nc2ccccc2)N1CC1CCC(C(C)(C)C)CC1` (stereo partly drawn), the AC50 was > 26 µM (inactive).
In the case of `COc1ccc(-c2cc(-c3ccccc3)[n+](C)c(-c3ccccc3)c2)cc1`, the AC50 is reported as > 26 µM (inactive).
`CCNC(=O)Nc1cc(S(=O)(=O)Nc2ccc(OC)cc2)ccc1N1CCOCC1` was tested, and the AC50 was > 26 µM (inactive).
With `CC1(C)CC(N2CCN(c3ccccc3)CC2)=CC(=[N+]2CCCC2)C1` the AC50 was > 26 µM (inactive).
With `CC(=O)SC1CC(=O)N(c2c(C)cccc2C)C1=O` (stereo not drawn) the AC50 was > 26 µM (inactive).
With `Cc1cccc(N=Nc2ccc(O)c3ncccc23)c1` the AC50 was > 26 µM (inactive).
`Cn1cc(C(=O)N/N=C/c2c(O)ccc3ccccc23)ccc1=O` was tested, and the AC50 was > 26 µM (inactive).
`CC(=O)c1cn(CCOc2cc(C)ccc2C)c2ccccc12` was tested, and the AC50 was > 26 µM (inactive).
For `Cc1ccccc1N=Nc1ccc(O)c2ncccc12`, the AC50 was > 26 µM (inactive).
For `CN1/C(=C\C(=O)CN2C(=O)NC3(CCCCCC3)C2=O)C(C)(C)c2ccccc21`, the AC50 was > 12 µM (inactive).
With `CN(C)CCCNc1cc(C(C)(C)C)nc2c(-c3ccccc3)cnn12` the AC50 was > 26 µM (inactive).
In the case of `COc1ccccc1N1CCN(Cc2ccc(O)c3ncccc23)CC1`, the AC50 is reported as > 26 µM (inactive).
With `CCCCCc1ccc(-c2cn(CN3C(=O)c4ccccc4C3=O)nn2)cc1` the AC50 was > 26 µM (inactive).
`COc1ccc(Br)cc1CN1CCN(Cc2c[nH]c3ccccc23)CC1` was tested, and the AC50 was > 26 µM (inactive).
For `Oc1c(C(Nc2cccc(C(F)(F)F)c2)c2ccncc2)ccc2cccnc12` (stereo not drawn), the AC50 was > 26 µM (inactive).
`COc1ccc(OC)c(NC(=O)CSc2ncnc3c2cnn3-c2ccccc2Cl)c1` was tested, and the AC50 was > 26 µM (inactive).
`O=C(c1cc(COc2cccc(C(F)(F)F)c2)on1)N1CCC(c2ccncc2)CC1` was tested, and the AC50 was > 26 µM (inactive).
With `CCCC(=O)NC(c1ccc(OC)c(OC)c1)c1cc(Cl)c2cccnc2c1O` (stereo not drawn) the AC50 was > 26 µM (inactive).
In the case of `COc1ccccc1-n1c(-c2ccccc2)c[n+]2c1CCc1ccccc1-2`, the AC50 is reported as > 26 µM (inactive).
With `Cc1ccc2c(C)ccc(O)c2n1` the AC50 was > 26 µM (inactive).
`COc1ccc(/C=C/C(=O)c2ccncc2)c2ccccc12` was tested, and the AC50 was > 26 µM (inactive).
`O=S1(=O)C=C(Sc2nnc(-c3ccccc3)o2)c2ccccc21` was tested, and the AC50 was > 26 µM (inactive).
`CCCCCc1cc(=O)oc2c(C(CCN3CCCCC3)c3ccc4c(c3)OCO4)c(OC)cc(OC)c12` (stereo not drawn) was tested, and the AC50 was > 26 µM (inactive).
`c1ccc2c(CN3CCCCCC3)c[nH]c2c1` was tested, and the AC50 was 4.24 µM.
With `O=[N+]([O-])c1cc(/C=N/Nc2nc3ccccc3[nH]2)c(O)cc1O` the AC50 was > 26 µM (inactive).
With `COc1cccc(CN(C)C(=O)c2cc(COc3ccc4ncccc4c3)on2)c1` the AC50 was > 26 µM (inactive).
`CCCCC(=O)N1C/C=C\C(c2ccc(OC)cc2)N(Cc2ccc(F)cc2)C(=O)[C@H]1Cc1ccccc1` (stereo partly drawn) was tested, and the AC50 was > 26 µM (inactive).
For `Cc1ccccc1NC(=S)Nc1cccc2cnccc12`, the AC50 was > 26 µM (inactive).
In the case of `N#C/C(=N\Nc1cccc([N+](=O)[O-])c1)C(=O)c1ccc(Br)cc1`, the AC50 is reported as > 26 µM (inactive).
With `O=C(Nc1cccnc1)c1ccc([N+](=O)[O-])s1` the AC50 was > 26 µM (inactive).
`O=C(CCCN1C(=O)/C(=C/c2ccccc2)SC1=S)NCCCn1ccnc1` was tested, and the AC50 was > 26 µM (inactive).
`O=[N+]([O-])c1ccc(N2CCN(C(=S)NCc3ccc(Cl)cc3)CC2)cc1` was tested, and the AC50 was > 26 µM (inactive).
With `Cc1ccccc1NC1=C/C(=N\S(=O)(=O)c2cccs2)c2ccccc2C1=O` the AC50 was > 26 µM (inactive).
`CCN(CC)S(=O)(=O)c1cccc(NC(=O)c2cc(-c3cccs3)nn2-c2ccccc2)c1` was tested, and the AC50 was > 26 µM (inactive).
With `COc1ccc(-c2cn(-c3ccc(OC)cc3)c3[n+]2-c2ccccc2CC3)cc1` the AC50 was > 26 µM (inactive).
With `CCCCC(=O)NC(c1ccccc1)c1ccc2cccnc2c1O` (stereo not drawn) the AC50 was > 26 µM (inactive).
In the case of `CCC(/C=C1\Sc2ccc(OC)cc2N1CC)=C\c1sc2ccc(OC)cc2[n+]1CCCS(=O)(=O)[O-]`, the AC50 is reported as > 26 µM (inactive).
With `Cc1cccc(/C=C/C(=O)c2ccc([N+](=O)[O-])o2)c1` the AC50 was > 26 µM (inactive).
For `O=C(NC(=S)NNC(=O)c1cnccn1)c1ccc(F)cc1`, the AC50 was > 26 µM (inactive).
For `O=C(CNc1cccc2ccccc12)N/N=C/c1ccc([N+](=O)[O-])o1`, the AC50 was > 26 µM (inactive).
In the case of `Cc1nc(N/N=C/c2ccccn2)sc1C`, the AC50 is reported as > 26 µM (inactive).
For `Cc1nnc(N/N=C/c2cc([N+](=O)[O-])c(N3CCC(C)CC3)cc2N2CCC(C)CC2)n1N`, the AC50 was > 26 µM (inactive).
`COc1ccc(C2C(O)C(c3c[nH]c4ccccc34)=NN2C(=O)CCl)cc1` (stereo not drawn) was tested, and the AC50 was > 26 µM (inactive).
For `CCc1cc(SC#N)cc(C)c1NC(=O)CCl`, the AC50 was > 26 µM (inactive).
In the case of `O=C(Nc1cc(S(=O)(=O)N2CCCCC2)ccc1Cl)c1ccccc1NS(=O)(=O)c1ccc(F)cc1`, the AC50 is reported as > 26 µM (inactive).
For `O=C(Oc1c(CN2CCOCC2)cc(Cl)c2cccnc12)c1ccccc1`, the AC50 was > 26 µM (inactive).
With `CNC[C@@H](Cc1ccccc1)NC[C@@H](CC1CCCCC1)NCCCc1ccccc1` the AC50 was > 26 µM (inactive).
With `CN(C)S(=O)(=O)c1ccc(Oc2ccc(S(=O)(=O)N(C)C)cc2)cc1` the AC50 was > 26 µM (inactive).
In the case of `Cc1ccc(-c2c[n+]3c(n2-c2ccccc2)CCC3)cc1`, the AC50 is reported as > 26 µM (inactive).
In the case of `COc1ccccc1N(CC(=O)N/N=C/c1c(O)ccc2ccccc12)S(C)(=O)=O`, the AC50 is reported as > 26 µM (inactive).
`O=C(NN=C(c1ccccc1)c1ccccn1)c1ccccc1` was tested, and the AC50 was > 26 µM (inactive).
With `Clc1ccc(OCCN2CCN(c3ncnc4sccc34)CC2)cc1` the AC50 was > 26 µM (inactive).
In the case of `Cc1cc(C)n(-c2nc(Nc3ccccc3C(F)(F)F)nc(-n3nc(C)cc3C)n2)n1`, the AC50 is reported as > 26 µM (inactive).
With `O=c1c2c(nc3c(-c4ccc(Cl)cc4)c[nH]n13)CCCC2` the AC50 was > 26 µM (inactive).
In the case of `Cc1ccc(N2C(=O)NC(=O)/C(=C\C=C\c3ccco3)C2=O)cc1C`, the AC50 is reported as > 26 µM (inactive).
For `O=C(COC(=O)Cn1cnc2ccccc2c1=O)Nc1ccc2c(c1)OCO2`, the AC50 was > 26 µM (inactive).
In the case of `O=C(Nc1ccc(-c2nc3ccccc3o2)cc1)c1ccc(N2CCOCC2)c([N+](=O)[O-])c1`, the AC50 is reported as > 26 µM (inactive).
In the case of `CCOc1ccc(C(Nc2cccnc2)c2cc(Cl)c3cccnc3c2O)cc1` (stereo not drawn), the AC50 is reported as > 26 µM (inactive).
In the case of `COC(=O)c1cccc(NC(=O)Nc2ccc(Cl)c(Cl)c2)c1`, the AC50 is reported as > 26 µM (inactive).
With `Oc1ccc(COCc2ccccc2)c2cccnc12` the AC50 was > 26 µM (inactive).
In the case of `CCOC(=O)c1sc(NC(=O)Nc2cccc(Cl)c2)cc1C`, the AC50 is reported as > 26 µM (inactive).
`O=C(NC(Nc1nc2ccc([N+](=O)[O-])cc2s1)(C(F)(F)F)C(F)(F)F)c1ccccc1` was tested, and the AC50 was > 26 µM (inactive).
With `COc1cc(C)c(C(=O)CC(=O)c2c(C)cc(OC)cc2C)c(C)c1` the AC50 was > 26 µM (inactive).
In the case of `O=S(=O)(c1ccc2nc(Nc3ccccc3)ccc2c1)N1CCCCC1`, the AC50 is reported as > 26 µM (inactive).
With `Cc1ccc(-c2nc(N/N=C/c3cccnc3)c3ccccc3n2)cc1` the AC50 was > 26 µM (inactive).
With `CCc1ccc(S(=O)(=O)Nc2ccc(O)c3ccccc23)cc1` the AC50 was > 26 µM (inactive).
`CCOC(=O)C1CCN(Cc2ccc(O)c3ncccc23)CC1` was tested, and the AC50 was > 26 µM (inactive).
`Cc1c(/C=N/Nc2nc3ccccc3[nH]2)c2ccccc2n1C` was tested, and the AC50 was > 26 µM (inactive).
For `COc1ccc(C2=Nn3c(nnc3-c3ccccc3Cl)SC2)cc1OC1CCCC1`, the AC50 was > 26 µM (inactive).
For `Cc1nc2ccc(NC(=O)c3cc(S(=O)(=O)N(C)c4ccccc4)ccc3Cl)cc2s1`, the AC50 was > 26 µM (inactive).
Compound `CC(=O)Nc1sc2c(c1-c1nc3ccccc3s1)CCN(C(C)C)C2` has an AC50 of 3.1 µM.
In the case of `C/C(=N\NC(=O)c1cc(C)nc2ccccc12)c1ccccn1`, the AC50 is reported as > 26 µM (inactive).
`O=C(Nc1ccc(OC(F)F)c(Cl)c1)C(c1ccccc1)c1ccccc1` was tested, and the AC50 was > 26 µM (inactive).
For `Cc1ccc(NC(=O)c2nc(S(=O)(=O)Cc3ccccc3)ncc2Cl)cc1`, the AC50 was > 26 µM (inactive).
With `CCc1c(C)sc2nc(C(C)C)nc(SCC(=O)N3CCc4ccccc4C3)c12` the AC50 was > 26 µM (inactive).
With `CCOC(=O)c1ccc(NC(=O)Cn2cnc3cc(C)c(C)cc32)cc1` the AC50 was > 26 µM (inactive).
In the case of `CCc1nc(N2CCN(C(C)=O)CC2)c2c3c(sc2n1)CC(C(C)(C)C)CC3` (stereo not drawn), the AC50 is reported as > 26 µM (inactive).
With `Cc1cc(N/N=C/c2ccc(F)cc2)nc(-n2nc(C)cc2C)n1` the AC50 was > 26 µM (inactive).
`CCCN(CCC)c1nc(-c2ccccn2)nc2ccccc12` was tested, and the AC50 was > 26 µM (inactive).
For `COc1ccc(C(=O)N(C)c2ccccc2C(=O)NCCc2ccccc2)cc1`, the AC50 was > 26 µM (inactive).
`CCCCCCCCn1ccc(=N)cc1` was tested, and the AC50 was > 26 µM (inactive).
For `O=C(NCc1ccccc1)C1=C[C@@H](c2csc3ccccc23)C[C@@H](OCc2ccc(CO)cc2)O1`, the AC50 was > 26 µM (inactive).
